According to patent publication US20240158446A1, “CYCLIC COMPOUND HAVING SELECTIVE INHIBITORY ACTION ON KRAS OVER HRAS AND NRAS” (CHUGAI SEIYAKU KABUSHIKI KAISHA, priority 2021, published 2024):

What was measured:
[1] = target: GDP-bound KRAS wild-type protein (Homo sapiens, UniProt P01116); assay: Binding to KRAS by surface plasmon resonance (SPR), Single Cycle Kinetics; conditions: SPR Single Cycle Kinetics, GDP-bound KRAS wild-type protein, 1:1 binding model; read-out: KRAS KD
[2] = target: GDP-bound NRAS wild-type protein (Homo sapiens, UniProt P01111); assay: Binding to NRAS by surface plasmon resonance (SPR), Single Cycle Kinetics; conditions: SPR KD ratio NRAS/KRAS, class symbols
GDP-bound NRAS wild-type protein, sequence (P01111 whole entry): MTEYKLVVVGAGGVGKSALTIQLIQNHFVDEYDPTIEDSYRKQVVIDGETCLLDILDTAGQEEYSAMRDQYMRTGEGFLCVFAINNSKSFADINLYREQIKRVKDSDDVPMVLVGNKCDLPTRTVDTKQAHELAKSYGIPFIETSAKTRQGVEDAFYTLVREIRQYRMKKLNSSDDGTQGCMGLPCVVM

[3] = target: GDP-bound HRAS wild-type protein (Homo sapiens, UniProt P01112); assay: Binding to HRAS by surface plasmon resonance (SPR), Single Cycle Kinetics; conditions: SPR KD ratio HRAS/KRAS, class symbols
GDP-bound HRAS wild-type protein, sequence (P01112 whole entry): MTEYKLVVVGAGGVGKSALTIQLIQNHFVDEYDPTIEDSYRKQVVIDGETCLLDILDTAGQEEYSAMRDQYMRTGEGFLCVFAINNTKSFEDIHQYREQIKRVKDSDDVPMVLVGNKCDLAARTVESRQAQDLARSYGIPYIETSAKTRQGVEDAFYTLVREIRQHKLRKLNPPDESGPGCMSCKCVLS

GDP-bound KRAS wild-type protein, sequence (P01116 whole entry): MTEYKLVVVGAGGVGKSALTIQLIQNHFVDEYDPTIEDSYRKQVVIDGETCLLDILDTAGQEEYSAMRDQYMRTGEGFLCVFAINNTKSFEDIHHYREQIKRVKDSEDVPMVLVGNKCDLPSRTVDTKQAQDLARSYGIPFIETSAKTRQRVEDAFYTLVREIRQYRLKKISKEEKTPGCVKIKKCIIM

## CCCC[C@H]1C(=O)N[C@@H]([C@@H](C)CC)C(=O)N(C)CC(=O)N(C)[C@H]2C/C=C\CCN(C2=O)[C@@H](Cc2ccc(C)cc2)C(=O)N(C)CC(=O)N[C@@H](CCc2cc(F)c(C(F)(F)F)c(F)c2)C(=O)N2C[C@H](OCC)C[C@H]2C(=O)NC2(CCC2)C(=O)N(C)[C@@H](C2CCCC2)C(=O)N(C)[C@H](C(=O)N(C)C)CC(=O)N1C [PP2798]
[1]
  Kd: 0.075 nM
[2]
  NRAS/KRAS (ratio of KD value with respect to GDP-bound NRAS wild-type protein to KD value with respect to KRAS): A (a compound having 10 or more and less than 20 is denoted as A)
[3]
  HRAS/KRAS (ratio of KD value with respect to GDP-bound HRAS wild-type protein to KD value with respect to KRAS): A (a compound having 10 or more and less than 20 is denoted as A)

## CCC[C@H]1C(=O)N[C@@H]([C@@H](C)CC)C(=O)N(C2CC2)CC(=O)N(C)[C@H]2C/C=C\CCN(C2=O)[C@@H](Cc2ccc(C)cc2)C(=O)N(C)CC(=O)N[C@@H](CCc2ccc(C(F)(F)F)c(OC)c2)C(=O)N2C[C@H](OCC)C[C@H]2C(=O)NC2(CC(C)(C)C2)C(=O)N(C)[C@@H](CC2CC2)C(=O)N(C)[C@H](C(=O)N(C)C)CC(=O)N1C [PP2803]
[1]
  Kd: 5.9 nM
[2]
  NRAS/KRAS (ratio of KD value with respect to GDP-bound NRAS wild-type protein to KD value with respect to KRAS): A (a compound having 10 or more and less than 20 is denoted as A)
[3]
  HRAS/KRAS (ratio of KD value with respect to GDP-bound HRAS wild-type protein to KD value with respect to KRAS): A (a compound having 10 or more and less than 20 is denoted as A)

## CC[C@H](C)[C@@H]1NC(=O)[C@H](CC2CC2)N(C)C(=O)C[C@@H](C(=O)N(C)C)N(C)C(=O)[C@H](C2CCCC2)N(C)C(=O)C2(CC(C)(C)C2)NC(=O)[C@@H]2C[C@@H](F)CN2C(=O)[C@H](CCc2cc(F)c(C(F)(F)F)c(F)c2)NC(=O)CN(C)C(=O)[C@H](Cc2ccc(C)cc2)N2CC/C=C\C[C@@H](C2=O)N(C)C(=O)CN(C)C1=O [PP2804]
[1]
  Kd: 0.033 nM
[2]
  NRAS/KRAS (ratio of KD value with respect to GDP-bound NRAS wild-type protein to KD value with respect to KRAS): A (a compound having 10 or more and less than 20 is denoted as A)
[3]
  HRAS/KRAS (ratio of KD value with respect to GDP-bound HRAS wild-type protein to KD value with respect to KRAS): A (a compound having 10 or more and less than 20 is denoted as A)

## CCCC[C@H]1C(=O)N[C@@H]([C@@H](C)CC)C(=O)N(C)CC(=O)N(C)[C@H]2C/C=C\CCN(C2=O)[C@@H](Cc2ccc(C(F)(F)F)cc2)C(=O)N(C)CC(=O)N[C@@H](CCc2cc(F)c(C(F)(F)F)c(F)c2)C(=O)N2C[C@H](OCC)C[C@H]2C(=O)NC2(CC(C)(C)C2)C(=O)N(C)[C@@H](C2CCCC2)C(=O)N(C)[C@H](C(=O)N(C)CC)CC(=O)N1C [PP2806]
[1]
  Kd: 0.12 nM
[2]
  NRAS/KRAS (ratio of KD value with respect to GDP-bound NRAS wild-type protein to KD value with respect to KRAS): A (a compound having 10 or more and less than 20 is denoted as A)
[3]
  HRAS/KRAS (ratio of KD value with respect to GDP-bound HRAS wild-type protein to KD value with respect to KRAS): A (a compound having 10 or more and less than 20 is denoted as A)

## CCC[C@H]1C(=O)N[C@@H]([C@@H](C)CC)C(=O)N(C)CC(=O)N(C)[C@H]2C/C=C\CCN(C2=O)[C@@H](Cc2ccc(C(F)(F)F)cc2)C(=O)N(C)CC(=O)N[C@@H](CCc2cc(F)c(C(F)(F)F)c(F)c2)C(=O)N2C[C@H](OCC)C[C@H]2C(=O)NC2(CC(C)(C)C2)C(=O)N(C)[C@@H](CC2CC2)C(=O)N(C)[C@H](C(=O)N(C)C)CC(=O)N1C [PP2807]
[1]
  Kd: 0.34 nM
[2]
  NRAS/KRAS (ratio of KD value with respect to GDP-bound NRAS wild-type protein to KD value with respect to KRAS): AA (a compound having 20 or more is denoted as AA)
[3]
  HRAS/KRAS (ratio of KD value with respect to GDP-bound HRAS wild-type protein to KD value with respect to KRAS): A (a compound having 10 or more and less than 20 is denoted as A)

## CCCC[C@H]1C(=O)N[C@@H]([C@@H](C)CC)C(=O)N(C)CC(=O)N(C)[C@H]2C/C=C\CCN(C2=O)[C@@H](Cc2ccc(C)cc2)C(=O)N(C)CC(=O)N[C@@H](CCc2cc(F)c(C(F)(F)F)c(F)c2)C(=O)N2C[C@H](OCC)C[C@H]2C(=O)NC2(CC(C)(C)C2)C(=O)N(C)[C@@H](C2CCCC2)C(=O)N(C)[C@H](C(=O)N(C)CC)CC(=O)N1C [PP2808]
[1]
  Kd: 0.43 nM
[2]
  NRAS/KRAS (ratio of KD value with respect to GDP-bound NRAS wild-type protein to KD value with respect to KRAS): B (a compound having 3 or more and less than 10 is denoted as B)
[3]
  HRAS/KRAS (ratio of KD value with respect to GDP-bound HRAS wild-type protein to KD value with respect to KRAS): B (a compound having 3 or more and less than 10 is denoted as B)

## CCC[C@H]1C(=O)N[C@@H]([C@@H](C)CC)C(=O)N(C)CC(=O)N(C)[C@H]2C/C=C\CCN(C2=O)[C@@H](Cc2ccc(C(F)(F)F)cc2)C(=O)N(C)CC(=O)N[C@@H](CCc2ccc(C(F)(F)F)c(OC)c2)C(=O)N2C[C@H](OCC)C[C@H]2C(=O)NC2(CC(C)(C)C2)C(=O)N(C)[C@@H](CC2CC2)C(=O)N(C)[C@H](C(=O)N(C)C)CC(=O)N1C [PP2809]
[1]
  Kd: 0.9 nM
[2]
  NRAS/KRAS (ratio of KD value with respect to GDP-bound NRAS wild-type protein to KD value with respect to KRAS): A (a compound having 10 or more and less than 20 is denoted as A)
[3]
  HRAS/KRAS (ratio of KD value with respect to GDP-bound HRAS wild-type protein to KD value with respect to KRAS): A (a compound having 10 or more and less than 20 is denoted as A)

## CCC[C@H]1C(=O)N[C@@H]([C@@H](C)CC)C(=O)N(C)CC(=O)N(C)[C@H]2C/C=C\CCN(C2=O)[C@@H](Cc2ccc(C(F)(F)F)cc2)C(=O)N(C)CC(=O)N[C@@H](CCc2ccc(Cl)c(Cl)c2)C(=O)N2C[C@H](OCC)C[C@H]2C(=O)NC2(CC(C)(C)C2)C(=O)N(C)[C@@H](CC2CC2)C(=O)N(C)[C@H](C(=O)N(C)C)CC(=O)N1C [PP2811]
[1]
  Kd: 0.82 nM
[2]
  NRAS/KRAS (ratio of KD value with respect to GDP-bound NRAS wild-type protein to KD value with respect to KRAS): A (a compound having 10 or more and less than 20 is denoted as A)
[3]
  HRAS/KRAS (ratio of KD value with respect to GDP-bound HRAS wild-type protein to KD value with respect to KRAS): A (a compound having 10 or more and less than 20 is denoted as A)

## CCC[C@H]1C(=O)N[C@@H]([C@@H](C)CC)C(=O)N(C2CC2)CC(=O)N(C)[C@H]2C/C=C\CCN(C2=O)[C@@H](Cc2ccc(C(F)(F)F)cc2)C(=O)N(C)CC(=O)N[C@@H](CCc2cc(F)c(C(F)(F)F)c(F)c2)C(=O)N2C[C@H](OCC)C[C@H]2C(=O)NC2(CC(C)(C)C2)C(=O)N(C)[C@@H](CC2CC2)C(=O)N(C)[C@H](C(=O)N(C)C)CC(=O)N1C [PP2813]
[1]
  Kd: 1.7 nM
[2]
  NRAS/KRAS (ratio of KD value with respect to GDP-bound NRAS wild-type protein to KD value with respect to KRAS): AA (a compound having 20 or more is denoted as AA)
[3]
  HRAS/KRAS (ratio of KD value with respect to GDP-bound HRAS wild-type protein to KD value with respect to KRAS): A (a compound having 10 or more and less than 20 is denoted as A)

## CCC[C@H]1C(=O)N[C@@H]([C@@H](C)CC)C(=O)N(C2CC2)CC(=O)N(C)[C@H]2C/C=C\CCN(C2=O)[C@@H](Cc2ccc(C(F)(F)F)cc2)C(=O)N(C)CC(=O)N[C@@H](CCc2ccc(C(F)(F)F)c(OC)c2)C(=O)N2C[C@H](OCC)C[C@H]2C(=O)NC2(CC(C)(C)C2)C(=O)N(C)[C@@H](CC2CC2)C(=O)N(C)[C@H](C(=O)N(C)C)CC(=O)N1C [PP2815]
[1]
  Kd: 3.6 nM
[2]
  NRAS/KRAS (ratio of KD value with respect to GDP-bound NRAS wild-type protein to KD value with respect to KRAS): A (a compound having 10 or more and less than 20 is denoted as A)
[3]
  HRAS/KRAS (ratio of KD value with respect to GDP-bound HRAS wild-type protein to KD value with respect to KRAS): A (a compound having 10 or more and less than 20 is denoted as A)

## CCC[C@H]1C(=O)N[C@@H]([C@@H](C)CC)C(=O)N(C2CC2)CC(=O)N(C)[C@H]2C/C=C\CCN(C2=O)[C@@H](Cc2ccc(C(F)(F)F)cc2)C(=O)N(C)CC(=O)N[C@@H](CCc2ccc(Cl)c(Cl)c2)C(=O)N2C[C@H](OCC)C[C@H]2C(=O)NC2(CC(C)(C)C2)C(=O)N(C)[C@@H](CC2CC2)C(=O)N(C)[C@H](C(=O)N(C)C)CC(=O)N1C [PP2817]
[1]
  Kd: 2.4 nM
[2]
  NRAS/KRAS (ratio of KD value with respect to GDP-bound NRAS wild-type protein to KD value with respect to KRAS): A (a compound having 10 or more and less than 20 is denoted as A)
[3]
  HRAS/KRAS (ratio of KD value with respect to GDP-bound HRAS wild-type protein to KD value with respect to KRAS): A (a compound having 10 or more and less than 20 is denoted as A)

## CCC(CC)[C@H]1C(=O)N(C)[C@H](C(=O)N(C)C)CC(=O)N(C)[C@@H](COC)C(=O)N[C@@H]([C@@H](C)CC)C(=O)N(C)CC(=O)N(C)[C@H]2C/C=C\CCN(C2=O)[C@@H](Cc2ccc(C)cc2)C(=O)N(C)CC(=O)N[C@@H](CCc2ccc(Cl)c(Cl)c2)C(=O)N2C[C@H](OC3CCCC3)C[C@H]2C(=O)N(C)C2(CC(C)(C)C2)C(=O)N1C [PP2818]
[1]
  Kd: 0.88 nM
[2]
  NRAS/KRAS (ratio of KD value with respect to GDP-bound NRAS wild-type protein to KD value with respect to KRAS): A (a compound having 10 or more and less than 20 is denoted as A)
[3]
  HRAS/KRAS (ratio of KD value with respect to GDP-bound HRAS wild-type protein to KD value with respect to KRAS): A (a compound having 10 or more and less than 20 is denoted as A)

## CCC[C@H]1C(=O)N[C@@H]([C@@H](C)CC)C(=O)N(C2CC2)CC(=O)N(C)[C@H]2C/C=C\CCN(C2=O)[C@@H](Cc2ccc(C(F)(F)F)cc2)C(=O)N(C)CC(=O)N[C@@H](CCc2ccc(Cl)c(Cl)c2)C(=O)N2C[C@H](OCC)C[C@H]2C(=O)NC2(CC(C)(C)C2)C(=O)N(C)[C@@H](CC2CCC2)C(=O)N(C)[C@H](C(=O)N(C)C)CC(=O)N1C [PP2819]
[1]
  Kd: 2.2 nM
[2]
  NRAS/KRAS (ratio of KD value with respect to GDP-bound NRAS wild-type protein to KD value with respect to KRAS): A (a compound having 10 or more and less than 20 is denoted as A)
[3]
  HRAS/KRAS (ratio of KD value with respect to GDP-bound HRAS wild-type protein to KD value with respect to KRAS): A (a compound having 10 or more and less than 20 is denoted as A)

## CCO[C@@H]1C[C@H]2C(=O)NC3(CC(C)(C)C3)C(=O)N(C)[C@@H](CC3CCC3)C(=O)N(C)[C@H](C(=O)N(C)C)CC(=O)N(C)[C@@H](COC)C(=O)N[C@@H]([C@@H](C)CC)C(=O)N(C3CC3)CC(=O)N(C)[C@H]3C/C=C\CCN(C3=O)[C@@H](Cc3ccc(C(F)(F)F)cc3)C(=O)N(C)CC(=O)N[C@@H](CCc3ccc(Cl)c(Cl)c3)C(=O)N2C1 [PP2821]
[1]
  Kd: 1.8 nM
[2]
  NRAS/KRAS (ratio of KD value with respect to GDP-bound NRAS wild-type protein to KD value with respect to KRAS): A (a compound having 10 or more and less than 20 is denoted as A)
[3]
  HRAS/KRAS (ratio of KD value with respect to GDP-bound HRAS wild-type protein to KD value with respect to KRAS): A (a compound having 10 or more and less than 20 is denoted as A)
